Assay results from patent US20130303788A1, “METHOD OF PRODUCING BIPHENOLIC COMPOUND, NOVEL BIPHENYL COMPOUND AND SYNTHESIS METHOD THEREOF, AND PHARMACEUTICAL COMPOSITION FOR TREATING PARKINSON'S DISEASE” (Tzu Chi University, priority 2012, published 2013).

Legend:
[1] = tested on: SH-SY5Y human neuroblastoma cells; assay: Effects on oxidative stress (TBHP or CHP), MTT assay; assay type: cell-based; conditions: 10 μM for 30 minutes, then CHP 300 μM for 3 hours; vs pathological control; FIG. 9
Description: 3-(4,5-Dimethylthiazol-2-yl)-2,5-diphenyltetrazolium bromide (MTT) assay was conducted generally as follows. A MTT solution was added to culture of the cells in the respective well so that a MTT concentration of 0.5 mg/mL was reached, followed by cultivation for 4 hours. The liquid in the respective well was removed, and dimethylsulfoxide (DMSO) was added into the respective well to dissolve formazan dye. Absorbance of the mixture in the respective well at 570 nm (OD570) was measured using an OPTImax microplate reader (Molecular Devices).
The SH-SY5Y human neuroblastoma cells were respectively treated with products 1, 2, 3, 4, 5, 7, and 3,3′-diallyl-biphenyl-4,4′-diol (compound 55) (10 μM) for 30 minutes. 3,3′-diallyl-biphenyl-4,4′-diol (compound 55) was prepared from commercially available 4,4′-biphenol (compound 54) generally according to the method as described in Ablard, F. et al., Bioorg. Med. Chem. Lett. 2007, 17, 4428. Subsequently, the SH-SY5Y human neuroblastoma cells were exposed to cumene hydroperoxide (CHP) or tert-butyl hydroperoxide (TBHP) (300 μM, Riedel-de Haen) for 3 hours after the treatment with the respective biphenolic compound of formula (I).
Cell viability was evaluated as follows. The SH-SY5Y human neuroblastoma cells were subjected to the MTT assay as described in section 1 of General Procedures. The relative cell viability (%) was calculated by substituting the absorbance into the following formula:
where D=relative cell viability • E=OD570 of the pathological control, or the SH-SY5Y human neuroblastoma cells treated with the respective biphenolic compound of formula (I) • F=OD570 of the normal control The obtained data were subjected to the statistical analysis as described in section 5 of General Procedures.

[2] = tested on: iNOS (Inducible Nitric Oxide Synthase); assay: iNOS expression level (iNOS immunohistochemistry) in striatum of 6-OHDA mouse model of PD; assay type: in vivo, NMRI mice; conditions: Day 21 after 6-OHDA, FIG. 17
Description: The respective NMRI mouse was deeply anaesthetized with thiopental (50 mg/kg, intraperitoneally). The respective NMRI mouse was perfused transcardially with a heparin solution (0.05% heparin in 0.1 M PBS), and was subsequently perfused with 100 mL of ice-cold fixative (4% paraformaldehyde in 0.1 M PBS). The brain of the respective NMRI mouse was removed and was postfixed in the same ice-cold fixative for 12 hours, followed by dehydration in 30% sucrose in 0.1 M PBS. The brain was frozen and was subjected to tissue slicing. Serial coronal sections (a thickness of 20 μm) were cut on a freezing microtome and were placed in PBS. The sections were later processed for free-floating TH or iNOS immunohistochemistry.
The sections were rinsed three times with PBS (30 minutes for each time), were treated with 3% H2O2/10% methanol in PBS for 30 minutes for quenching the endogenous peroxidase activity, and were rinsed three times with PBS. […]
TH expression level in the striatum and the substantia nigra (SN), and iNOS expression level in the striatum were determined according to the method as described in section 4 of General Procedures on Day 21 after the injection of 6-OHDA or the vehicle. […]

[3] = tested on: mouse model of PD (6-OHDA unilateral striatal lesion); assay: Beam walking test, incoordination induced by 6-OHDA; assay type: in vivo, NMRI mice
Description: Product 1 was administered intraperitoneally to NMRI mice at a dose of 5 mg/kg. 30 minutes after the administration of product 1, the NMRI mice were subjected to 6-OHDA injection according to the method as described in section 2 of General Procedures.
NMRI mice into which the vehicle was injected, and which were not treated with product 1 before the injection of the vehicle, served as a sham operated control. NMRI mice that were subjected to 6-OHDA injection and that were not treated with product 1 before the 6-OHDA injection served as a pathological control.
The NMRI mice were subjected to the beam walking test as described in the following subsection 3 on Day 1 and Day 7 after the injection of 6-OHDA or the vehicle. The obtained data were subjected to the statistical analysis as described in section 5 of General Procedures.
NMRI mice were subjected to 6-OHDA injection according to the method as described in section 2 of General Procedures. On Day 7 after the 6-OHDA injection, product 1 was administered intraperitoneally to the NMRI mice at a dose of 5 mg/kg respectively for 7 and 14 consecutive days.
NMRI mice into which a vehicle (saline containing 0.02% ascorbic acid) was injected (generally according to the method as described in section 2 of General Procedures, except that 6-OHDA was not injected), and which were not treated with product 1 after the injection of the vehicle, served as a sham operated control. NMRI mice that were subjected to 6-OHDA injection and that were not treated with product 1 after the 6-OHDA injection served as a pathological control.
The NMRI mice were subjected to the beam walking test as described in the following subsection 3 on Day 14 or Day 21 after the injection of 6-OHDA or the vehicle. The obtained data were subjected to the statistical analysis as described in section 5 of General Procedures.
A beam walking test was conducted under proper conditions, e.g., silence and illumination, so as to evaluate coordination of the respective NMRI mouse. The respective NMRI mouse was placed at a starting point of a beam having a height of 50 cm from a supporting surface, equipped with an escape plateform at each end. […] Before the beam walking test, the respective mouse was trained to walk through the beam for 3 days so that the escape latency thereof was less than 20 seconds. The total travel distance was measured.

[4] = tested on: inflammatory pain; conditions: Lin Yi-Ruu et al. (2007); cited from earlier work

C=CCc1ccc(O)c(-c2ccc(O)c(CC=C)c2)c1 [product 1, 5,3′-Diallyl-biphenyl-2,4′-diol]
prevention of cell death (relative cell viability) after exposure to CHP [1]: significantly prevented cell death | iNOS expression in the striatum, subchronic post-treatment ([2]; 0.5, 1, 5 mg/kg i.p. 14 consecutive days starting Day 7): significantly inhibited iNOS expression in the striatum | relationship between dose and number of iNOS-positive cells in the striatum ([2]; 0.5, 1, 5 mg/kg i.p.): dose-dependent relationship | 14-day post-treatment compared to 7-day post-treatment, motor incoordination ([3]; 5 mg/kg i.p.): more effectively alleviating the motor incoordination | duration of the effect of the pretreatment on motor incoordination ([3]; 5 mg/kg i.p. 30 minutes before 6-OHDA): at least 7 days | motor incoordination (beam walking), pretreatment ([3]; 5 mg/kg i.p. 30 minutes before 6-OHDA, Day 1 and Day 7 after 6-OHDA, FIGS. 18(A), 18(B)): significantly alleviated the motor incoordination | motor incoordination (beam walking), 7-day post-treatment ([3]; 5 mg/kg i.p. for 7 days starting Day 7 after 6-OHDA, tested Day 14, FIG. 19): significantly alleviated the motor incoordination | motor incoordination (beam walking), 14-day post-treatment ([3]; 5 mg/kg i.p. for 14 days starting Day 7 after 6-OHDA, tested Day 21, FIG. 19): significantly alleviated the motor incoordination | alleviation of inflammatory pain in an animal model [4]: effective in alleviating inflammatory pain
